Source: US12345641B2, “Fluorescence quenching immunoassay” (IDEXX Laboratories, Inc., priority 2020, dated 2025)

Columns and labels:
anti-SDMA antibody = test: SDMA dose response with SDMA tracer/SDMA antibody solution (Example 34); type: binding; conditions: SDMA 0 to 100 μg/dL added to SDMA-DFF, SDMA-DCF or SDMA-Fl tracer/antibody solution
Protocol: Solutions of various SDMA tracers (SDMA-Fl, SDMA-DFF, and SDMA-DCF) in PBS (with 0.1% Tween) were prepared at a concentrations 400 nM. Solutions of anti-SDMA antibody or anti-SDMA antibody conjugated to BHQ10 (4 eq.) in PBS were prepared at concentrations of 400 and 800 nM, respectively.
SDMA standard solutions were prepared by serially diluting SDMA in PBS (with 0.1% Tween) to provide a final SDMA concentration of 100, 50, 25, 12,5, 6.26, 0 μg/dL.
50 μl of each SDMA standard solution was added to the well of a 96-well UV transparent plate. 50 μl of the SDMA tracer/SDMA antibody solution was then added to each well, the resulting solution mixed well by shaking, and incubated at room temperature for 30 min.

[1] = test system: Polyclonal anti-melamine antibody (Anti-Mel-Ab); test: Fluorescence of mixtures of melamine fluorescent tracers and anti-melamine antibody (Example 15); type: binding; conditions: tracer 30 nM, Anti-Mel-Ab 0 to 300 nM, PBS, ex 490 nm/em 520 nm
Protocol: Various substituted fluorescent tracers wherein melamine is conjugated to fluorescein were dissolved in DMSO (1 mM) and diluted in phosphate buffered saline (PBS) (pH=7.3) to provide a melamine tracer solution (1.2 μM). The following melamine tracers were used:
Polyclonal anti-melamine antibody (Anti-Mel-Ab, 4.65 mg/ml, commercially available from Meridian Life Sciences Inc. (Biodesign) of Memphis, TN) was diluted in PBS and serially diluted to provide Anti-Mel-Ab solutions having Anti-Mel-Ab concentrations ranging from 0 to 300 nM. The melamine tracer solutions (5 μL) were mixed with each Anti-Mel-Ab solution (195 μl) in a 96 well black assay plate with non-binding surface (commercially available from Corning Inc. of Corning, NY) to provide solutions having different molar ratios of the Anti-Mel-Ab to the melamine tracer. The concentration of the melamine tracer was 30 nM. The plate was gently shaken for 30 min at room temperature. The fluorescence intensities of each solution was then measured using a fluorescence plate reader (Synergy 4 Microplate Reader, commercially available from BioTek Instruments, Inc. of Winooski, VT) using an excitation wavelength of 490 nm and reading the emission at 520 nm.
Unless otherwise indicated, an excitation wavelength of 490 nm and reading the emission at 520 nm were used throughout the examples. […]

Anti-Mel-Ab = test: Fluorescence of Mel-F and Anti-Mel-Ab in PBS, serum and diluted serum with and without melamine (Example 17); type: binding; conditions: each solution: PBS, canine serum, serum diluted 1 in 10
Protocol: To a solution of Mel-F in PBS (1 μM, 6 μL) and to a mixture of Mel-F in PBS (1 μM, 6 μL) and Anti-Mel-Ab (1 μM, 6 μL) in the absence of and in the presence of melamine (2 μM, 6 μL) was added PBS, serum, or diluted serum (i.e., serum diluted 1 in 10 with PBS) to provide a final volume of 200 μL.

α-cortisol antibodies = test: Fluorescence quenching of cortisol-4-Fl with cortisol antibody (Example 28); type: binding
Protocol: The cortisol-4-FL was combined with various equivalents of various a-cortisol antibodies commercially available from HyTest (of Turku, Finland), Abcam (of Cambridge, United Kingdom), and Bio-Connect BV (Fitzgerald Industries) (of the Netherlands). The fluorescence was measured as a function of the ratio of antibody (Ab) to cortisol-4-FL. The results are depicted in FIG. 21.

anti-T4-Mab [2] = test: Fluorescence of T3-F and anti-T4-Mab after lyophilization (Example 22); conditions: T3-F and/or anti-T4-Mab lyophilized to dryness, reconstituted in PBS or charcoal treated horse serum
Protocol: T3-F (1.7 mg) was dissolved in 0.85 ml DMSO to provide a stock solution (2 mM). The T3-F stock solution was then diluted in PBS to provide a 1 μM working solution that was separated into two vials (1 mL each). To the first vial was added PBS (9 mL) and to the second vial was added PBS (8.9 mL) plus anti-T4 Mab (15 μM, 0.1 mL). The vials were mixed well and incubated for 30 min at room temperature. The fluorescence intensities for each solution (200 μL) was determined. Aliquots of each solution (200 μL) were then placed into wells of a 96 well black assay plate and lyophilized to dryness. To the dried residues was added 200 μL PBS, horse serum that had been treated with charcoal (i.e., the serum was “charcoal stripped” by dialyzing the serum in PBS buffer containing charcoal for at least three buffer changes to remove small molecules from the serum), or horse serum that had been treated with charcoal containing T4 (10 μg/dL) and the plate incubated for 30 min at room temperature. Fluorescence intensities were then recorded again.

anti-T4 antibody = test: Maximum percentage fluorescence quenching of T2-F, T3-F, T4-F by anti-T4 antibody with and without quencher label (Example 27 table); type: binding
Protocol: In another experiment, tracer T2-F, T3-F, or T4-F was dissolved in DMSO to provide a DMSO solution at a tracer concentration of 1 mM. The DMSO solution was then diluted with phosphate buffered saline (“PBS”) to provide a stock solution of each tracer at a concentration of 10 μM. Monoclonal anti-T4-Mab or anti-T4-Mab conjugated to a quencher (Cy3-Ab, IRdyeQC1-Ab, Cy5-Ab, BHQ1-Ab) were serially diluted in PBS to provide solutions having an Anti-T4-Mab or anti-T4-Mab conjugated to quencher at concentration ranging from 0 to 2 μM. In a 96 well black assay plate containing the serially diluted Anti-T4-Mab or anti-T4-Mab conjugated to quencher (95 μL) was added the tracer T2-F, T3-F, or T4-F solution (5 μL), mixed well, and incubated for 30 min and the fluorescence intensities then recorded at an excitation wavelength of 485 nm and an emission wavelength of 520 nm. The results of maximum percentage fluorescence quenching for different tracers and quencher-modified antibodies are provided in the following Table: […]

anti-T4-Mab [3] = test: Fluorescence of T3 tracers and anti-T4-Mab in the presence of T4 (Example 20); type: binding
Protocol: Similar solutions were prepared and the fluorescence measured except that the T3-F was replaced with T3-5-F, T3-E-F and T3-FITC.

α-Cholic Acid antibody = test: Fluorescence quenching of CA-Fl with anti-cholic acid antibody in PBS (Example 41); type: binding
Protocol: A working solution of CA-Fl in PBS (100 nM) was prepared. The working solution was then combined with various equivalents of α-Cholic Acid antibody (1:1, v/v) (commercially available from Fitzgerald Industries of the Netherlands). The fluorescence was measured as a function of the ratio of antibody (Ab) to CA-Fl. The results are depicted in FIG. 33. […] The higher the ratio of antibody to CA-Fl tracer, the greater the amount of quenching.

streptavidin = streptavidin (Streptomyces avidinii, UniProt P22629); test: Fluorescence of Biotin-F or Biotin-ED in the presence of streptavidin (Example 19); type: binding; conditions: saturation point, 1:1 molar ratio streptavidin to tracer
streptavidin, sequence (P22629 25-183, species assumed): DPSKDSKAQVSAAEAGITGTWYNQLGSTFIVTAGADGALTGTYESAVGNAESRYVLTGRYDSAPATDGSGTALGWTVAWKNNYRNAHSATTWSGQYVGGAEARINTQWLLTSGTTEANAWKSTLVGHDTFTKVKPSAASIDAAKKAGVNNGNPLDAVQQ
Protocol: Biotin-F or Biotin-ED (commercially available from Thermo Scientific of Waltham, MA) was dissolved in DMSO to provide a DMSO solution (8.5 μM). The structure of biotin ED is
The DMSO solution was then diluted with PBS to provide a solution having a Biotin-F or Biotin-ED concentration of 100 nM. 20 μL aliquots of the resulting Biotin-F or Biotin-ED solution in PBS was then added to the wells of a 96 well black assay plate. Solutions of streptavidin in PBS having a streptavidin concentration ranging from 0 to 100 nM were prepared and added (180 μL) to the Biotin-F or Biotin-ED solution in the plate. The plate was incubated for 30 min at room temperature and the fluorescence intensities then recorded.

[4] = test system: anti-cefotaxime polyclonal antibody; test: Fluorescence of CEF-F with anti-cefotaxime antibody (Example 25); type: binding; conditions: tracer and antibody 200 nM
Protocol: Beta lactam antibiotics conjugated to fluorescein (i.e., AMO-FITC, AMO-F, AMP-F, and CEF-F) in PBS (400 nM, 100 μL) were mixed with either anti-penicillin or anti-cefotaxime polyclonal antibody (400 nM, 100 μL, commercially available from Novus Biologicals, LLC of Centennial, CO) in the absence of and in the presence of free beta-lactam antibiotic (ampicillin (400 nM) was added to AMP-F and cefotaxime (400 nM) was added to CEF-F) in a 96 well black assay plate. […] The solutions were incubated at room temperature for 5 min and the fluorescence intensity measured.

C/N=C(\NC)NCCC[C@H](N)C(=O)O [SDMA, symmetrical dimethylarginine]
fluorescence intensity as a function of SDMA concentration (anti-SDMA antibody): a dose response is observed

Nc1nc(N)nc(NCc2c(O)ccc3c(-c4ccccc4C(=O)O)c4ccc(=O)cc-4oc23)n1 [Mel-F, Melamine-Fluorescein]
degree of fluorescence quenching compared to the other melamine tracers [1]: highest degree of quenching
fluorescence of Mel-F after quenching by Anti-Mel-Ab relative to original value (Anti-Mel-Ab): about one-half of the original value

C[C@]12CCC(=NOCC(=O)NCc3c(O)ccc4c(-c5ccccc5C(=O)O)c5ccc(=O)cc-5oc34)C=C1CCC1C2[C@@H](O)C[C@@]2(C)C1CC[C@]2(O)C(=O)CO (stereo in doubt) [Cortisol-4-Fl]
fluorescence quenching on complex formation with cortisol antibody (α-cortisol antibodies): quenched

O=C(O)c1ccccc1-c1c2ccc(=O)cc-2oc2c(CNC(Cc3cc(I)c(Oc4ccc(O)c(I)c4)c(I)c3)C(=O)O)c(O)ccc12 (stereo not shown) [T3-F]
assay performance after lyophilization of reagents (anti-T4-Mab [2]): effective
Percentage of fluorescence quenching, BHQ1-Ab (anti-T4 antibody; anti-T4-Mab conjugated to BHQ1): 30%
Percentage of fluorescence quenching, Cy5-Ab (anti-T4 antibody; anti-T4-Mab conjugated to Cy5): 40%
Percentage of fluorescence quenching, Ab (anti-T4 antibody; anti-T4-Mab without quencher): 30%
fluorescence quenching by anti-T4-Mab (anti-T4-Mab [3]; PBS, tracer and antibody equimolar): quenched
time to stable fluorescence signal (anti-T4-Mab [3]; quenching by anti-T4-Mab and recovery after addition of T4): ≤ 10 min

C[C@H](CCC(=O)NCc1c(O)ccc2c(-c3ccccc3C(=O)O)c3ccc(=O)cc-3oc12)[C@H]1CC[C@H]2[C@@H]3[C@H](O)C[C@@H]4C[C@H](O)CC[C@]4(C)[C@H]3C[C@H](O)[C@]12C [CA-Fl, Cholic Acid-Fluorescein Conjugate]
fluorescence quenching on complex formation with α-Cholic Acid antibody (α-Cholic Acid antibody): quenched

O=C(CCCCC1SCC2NC(=O)NC21)NCc1c(O)ccc2c(-c3ccccc3C(=O)O)c3ccc(=O)cc-3oc12 (stereo not shown) [Biotin-F, Biotin-Fluorescein]
quenching efficiency (streptavidin): 70%

CO/N=C(\C(=O)NC1C(=O)N2C(C(=O)NCc3c(O)ccc4c(-c5ccccc5C(=O)O)c5ccc(=O)cc-5oc34)=C(COC(C)=O)CSC12)c1csc(N)n1 (stereo not shown) [CEF-F, Cefotaxime-Fluorescein]
fluorescence quenching by anti-cefotaxime antibody [4]: quenched
